The target of one experiment is T1, MC4 (Homo sapiens, UniProt P32245).
T1 construct: purchased Perkin Elmer BioSignal; host or cells: HEK 293
The experiment is described as follows: GPCR radioligand binding (RLB) assay, melanocortin MC4, [125I]NDP-αMSH. The essentials: (§1)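 Competition binding against radioligand ([125I]NDP-αMSH for MC4, [125I]SST-14 for SST5) on membranes of HEK 293 cells carrying the human receptor; buffer and incubation time optimized per receptor. Filtration through 0.5% PEI-treated glass fiber, washing, then scintillation counting.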

In another experiment the target is T2, SST5 (Homo sapiens, UniProt P35346).
T2 construct: purchased Perkin Elmer BioSignal; host or cells: HEK 293
The experiment is described as follows: GPCR radioligand binding (RLB) assay, somatostatin SST5, [125I]SST-14. Conditions: for SST5 inhibition at 10 micromolar: recombinant human receptor membranes (HEK 293). In a few lines: as §1

Setting [1] is: 10 micromolar, Example Library 4.
[2] abbreviates: 10 micromolar compound, recombinant human receptor membranes (HEK 293).
The mark [3] stands for this setting: 10 micromolar compound, Example Library 8.

T1 sequence (P32245 whole entry): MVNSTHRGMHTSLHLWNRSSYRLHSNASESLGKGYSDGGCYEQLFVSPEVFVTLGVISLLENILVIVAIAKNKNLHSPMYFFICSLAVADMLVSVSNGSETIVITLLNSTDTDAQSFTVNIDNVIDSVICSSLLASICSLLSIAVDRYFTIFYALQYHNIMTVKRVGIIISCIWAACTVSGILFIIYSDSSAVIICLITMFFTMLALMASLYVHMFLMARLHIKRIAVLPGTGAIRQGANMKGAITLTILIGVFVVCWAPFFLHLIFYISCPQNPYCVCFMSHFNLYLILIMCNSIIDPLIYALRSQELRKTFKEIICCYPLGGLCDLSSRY
T2 sequence (P35346 whole entry): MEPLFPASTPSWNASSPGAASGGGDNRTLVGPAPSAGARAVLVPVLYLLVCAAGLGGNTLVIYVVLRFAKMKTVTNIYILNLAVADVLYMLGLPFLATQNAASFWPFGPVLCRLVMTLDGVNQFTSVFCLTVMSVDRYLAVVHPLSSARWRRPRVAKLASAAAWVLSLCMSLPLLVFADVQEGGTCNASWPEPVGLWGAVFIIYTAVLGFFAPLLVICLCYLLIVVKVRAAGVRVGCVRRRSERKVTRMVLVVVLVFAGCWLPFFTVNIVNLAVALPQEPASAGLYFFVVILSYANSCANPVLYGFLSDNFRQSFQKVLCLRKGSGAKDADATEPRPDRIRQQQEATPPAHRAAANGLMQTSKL

Turning to `COCC1OC(OCc2ccc3ccccc3c2)C(NC(=O)CN)C(OCc2ccc3ccccc3c2)C1O` (stereo not drawn) [Compound 302], on MC4 (setting [1]), the “MC4 inhibition at 10 micromolar” value is on record as “+ (Indicates inhibition greater than . . . 50%)”. For the same molecule, the “SSTS inhibition at 10 micromolar” value at SST5 (setting [1]) is recorded as “+ (Indicates inhibition greater than . . . 50%)”.
For `COCC1OC(OCc2ccc3ccccc3c2)C(NC(=O)CNC(=N)N)C(OCc2ccc3ccccc3c2)C1O` (stereo not drawn) [Compound 303], at MC4 (setting [1]), the “MC4 inhibition at 10 micromolar” value is “+ (Indicates inhibition greater than . . . 50%)”. Further, the “SSTS inhibition at 10 micromolar” value at SST5 (setting [1]) was “+ (Indicates inhibition greater than . . . 50%)”.
On to `COCC1OC(OCc2ccc3ccccc3c2)C(NC(=O)CCNC(=N)N)C(OCc2ccc3ccccc3c2)C1O` (stereo not drawn) [Compound 305], for which, at MC4 (setting [1]), the “MC4 inhibition at 10 micromolar” value is recorded as “+ (Indicates inhibition greater than . . . 50%)”. For the same molecule, the “SSTS inhibition at 10 micromolar” value on SST5 (setting [1]) is reported as “+ (Indicates inhibition greater than . . . 50%)”.
With `COCC1OC(OCc2ccc3ccccc3c2)C(NC(=O)CCCNC(=N)N)C(OCc2ccc3ccccc3c2)C1O` (stereo not drawn) [Compound 307], on MC4 (setting [1]), the “MC4 inhibition at 10 micromolar” value is listed as “+ (Indicates inhibition greater than . . . 50%)”. At SST5 (setting [1]), the “SSTS inhibition at 10 micromolar” value is reported as “+ (Indicates inhibition greater than . . . 50%)”.
`CSC1OC(COC(=O)CCC2CNc3ccccc32)C(O)C(OCc2cccc(N)c2)C1NCc1ccccc1` (stereo not drawn) [Compound 311]: the “MC4 inhibition at 10 micromolar” value at MC4 (setting [2]) was “+ (Indicates inhibition greater than . . . 50%)”. Also, the “SST5 inhibition at 10 micromolar” value at SST5 (10 micromolar compound) is “+ (Indicates inhibition greater than . . . 50%)”.
Take `CSC1OC(COC(=O)Cc2ccccc2)C(O)C(OCc2cccc(N)c2)C1NCc1ccc(Cl)cc1` (stereo not drawn) [Compound 313]: the “MC4 inhibition at 10 micromolar” value at MC4 (setting [2]) is recorded as “+ (Indicates inhibition greater than . . . 50%)”. The “SST5 inhibition at 10 micromolar” value at SST5 (10 micromolar compound) is reported as “+ (Indicates inhibition greater than . . . 50%)”.
Take `CSC1O[C@H](COCc2ccccc2)[C@@H](O)[C@H](OCc2cccc(N)c2)[C@H]1NC(=O)CCC1CNc2ccccc21` (stereo partly drawn) [Compound 320]: the “MC4 inhibition at 10 micromolar” value at MC4 (setting [2]) is reported as “+ (Indicates inhibition greater than . . . 50%)”. Further, the “SST5 inhibition at 10 micromolar” value on SST5 (10 micromolar compound) is on record as “+ (Indicates inhibition greater than . . . 50%)”.
On to `CSC1O[C@H](COCc2ccc(Cl)cc2)[C@@H](O)[C@H](OCc2cccc(N)c2)[C@H]1NC(=O)Cc1c[nH]c2ccccc12` (stereo partly drawn) [Compound 324], for which the “MC4 inhibition at 10 micromolar” value on MC4 (setting [2]) is reported as “+ (Indicates inhibition greater than . . . 50%)”. The “SST5 inhibition at 10 micromolar” value at SST5 (10 micromolar compound) is listed as “+ (Indicates inhibition greater than . . . 50%)”.
Take `CSC1OC(COCc2cccc(N)c2)C(O)C(OCc2ccccc2)C1NC(=O)Cc1ccccc1` (stereo not drawn) [Compound 327]: the “MC4 inhibition at 10 micromolar” value at MC4 (setting [2]) was “+ (Indicates inhibition greater than . . . 50%)”. The “SST5 inhibition at 10 micromolar” value at SST5 (10 micromolar compound) is given as “+ (Indicates inhibition greater than . . . 50%)”.
With `CSC1OC(COCc2cccc(N)c2)C(O)C(OCc2ccccc2)C1NC(=O)CCC1CNc2ccccc21` (stereo not drawn) [Compound 330], the “MC4 inhibition at 10 micromolar” value at MC4 (setting [2]) is listed as “+ (Indicates inhibition greater than . . . 50%)”. The “SST5 inhibition at 10 micromolar” value at SST5 (10 micromolar compound) is given as “+ (Indicates inhibition greater than . . . 50%)”.
As for `CSC1OC(COCc2cccc(N)c2)C(O)C(OCc2ccc(Cl)cc2)C1NC(=O)c1ccccc1` (stereo not drawn) [Compound 331], the “MC4 inhibition at 10 micromolar” value on MC4 (setting [2]) was “+ (Indicates inhibition greater than . . . 50%)”. For the same molecule, on SST5 (10 micromolar compound), the “SST5 inhibition at 10 micromolar” value is on record as “+ (Indicates inhibition greater than . . . 50%)”.
Consider `CSC1O[C@H](COCc2cccc(N)c2)[C@@H](O)[C@H](OCc2ccccc2)[C@H]1NC(=O)Cc1c[nH]c2ccccc12` (stereo partly drawn) [Compound 336], for which the “MC4 inhibition at 10 micromolar” value at MC4 (setting [2]) is listed as “+ (Indicates inhibition greater than . . . 50%)”. The “SSTS inhibition at 10 micromolar” value at SST5 (setting [3]) was “+ (Indicates inhibition greater than . . . 50%)”.
On to `CSC1O[C@H](COCc2cccc(N)c2)[C@@H](O)[C@H](OCc2ccc(Cl)cc2)[C@H]1NC(=O)c1ccccc1` (stereo partly drawn) [Compound 338], for which the “MC4 inhibition at 10 micromolar” value on MC4 (setting [2]) is reported as “+ (Indicates inhibition greater than . . . 50%)”. For the same molecule, on SST5 (setting [3]), the “SSTS inhibition at 10 micromolar” value is given as “+ (Indicates inhibition greater than . . . 50%)”.
In the case of `CSC1O[C@H](COCc2cccc(N)c2)[C@@H](O)[C@H](OCc2ccc(Cl)cc2)[C@H]1NC(=O)Cc1ccccc1` (stereo partly drawn) [Compound 339], the “MC4 inhibition at 10 micromolar” value on MC4 (setting [2]) is “+ (Indicates inhibition greater than . . . 50%)”. Moreover, the “SSTS inhibition at 10 micromolar” value at SST5 (setting [3]) is reported as “+ (Indicates inhibition greater than . . . 50%)”.
Regarding `CSC1O[C@H](COCc2cccc(N)c2)[C@@H](O)[C@H](OCc2ccc(Cl)cc2)[C@H]1NC(=O)Cc1c[nH]c2ccccc12` (stereo partly drawn) [Compound 341], at MC4 (setting [2]), the “MC4 inhibition at 10 micromolar” value is on record as “+ (Indicates inhibition greater than . . . 50%)”. Further, on SST5 (setting [3]), the “SSTS inhibition at 10 micromolar” value is recorded as “+ (Indicates inhibition greater than . . . 50%)”.

(Values after patent US7994140B2, “Classes of compounds that interact with GPCRs” (Alchemia Limited, priority 2002, dated 2011).)
